Consider 20 molecules from PubChem BioAssay (NCI).

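Grown in 96-well plates, cells were treated for 48 hours with each compound at five concentrations. Insufficient inhibition: endpoint recorded as highest concentration tested. At the GI50, growth is halved. TGI: concentration producing complete growth inhibition.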 A value given as a limit tells only on which side of the number the result lay.

Experiment in all cases: NCI tumour cell line growth inhibition, 48 h
For test [1], the system named is HT29 colon.
For test [2], the system named is SK-OV-3 ovarian.
In test [3] the test system is OVCAR-4 ovarian.
Test [4] relates to CAKI-1 renal.
For test [5], the system named is UACC-257 melanoma.
Test [6] relates to COLO 205 colon.
Test [7] deals with ACHN renal.
For test [8], the system named is SN12C renal.
The subject of test [9] is SNB-75 CNS.
In test [10] the test system is HOP-92 NSCLC.

`C[C@]12CCC3c4ccc(O)cc4CCC3C1CC[C@@]2(O)CNC(=O)/C=C/c1ccc(O)c(O)c1` (some centres undefined): the GI50 in test [1] was 4.83 µM; in test [2], 16.7 µM; in test [3] it was 26.4 µM; in test [4], 11.7 µM; in test [5], 0.0562 µM; in [6], 3.55 µM. Further, the GI50 was 2.41 µM in test [7], 7.54 µM in test [8], 13.2 µM in test [9] and 12.1 µM in test [10]. Moreover, the TGI is 19.1 µM in test [1]; 34.5 µM in test [2]; 81.3 µM in [3]; 33 µM in test [4]; 6.54 µM in test [5]; 10.4 µM in test [6]. Moreover, the TGI came to 6.14 µM in test [7], 20.6 µM in test [8], 29 µM in test [9] and 33.6 µM in test [10].

With `O=C1CCCCN1c1ccccc1C#C/C=C\C#Cc1ccccc1C(F)(F)F`, the GI50 is 0.97 µM in [1]; > 50 µM in test [2]; 3.6 µM in [3]; 1.68 µM in test [4]; 2.72 µM in test [5]; 11.5 µM in [6]. In addition, the GI50 is 2.67 µM in [7], 1.59 µM in test [8], 1.61 µM in test [9] and 10.7 µM in test [10]. Moreover, the TGI in [1] is 2.63 µM; in test [2] it was > 50 µM; in [3], 19.1 µM; in test [4] it was 9.83 µM; in test [5] it was 18.3 µM; in test [6], > 50 µM. For the same molecule, the TGI in test [7] is 14.7 µM; in test [8] it was 3.67 µM; in test [9], 11.4 µM; in test [10], 43.1 µM.

Take `CC(C)[C@@H]1C=C2CC[C@H]3[C@](C)(CN)CCC[C@]3(C)[C@H]2CC1`: the GI50 in test [1] was 1.84 µM; in test [2], 13.2 µM; in test [3] it was 15.1 µM; in test [4] it was 1.85 µM; in test [5], 2.9 µM; in [6], 1.7 µM. In addition, the GI50 in test [7] was 5.67 µM; in test [8], 3.42 µM; in test [9] it was 14.8 µM; in test [10], 3.3 µM. Besides, the TGI in test [1] worked out at 3.64 µM; in [2], 26 µM; in test [3], 34.3 µM; in [4] it was 4.66 µM; in test [5], 9.88 µM; in test [6], 3.17 µM. Besides, the TGI in test [7] came out at 18.5 µM; in test [8], 14 µM; in [9], 28.8 µM; in test [10], 17.6 µM.

For the molecule `C=CC[C@H](C[C@H](C[C@H](C[C@H](C[C@H](C[C@H](C[C@H](C[C@H](C[C@H](C[C@H](CCCCC)OC)OC)OC)OC)OC)OC)OC)OC)OC)OC`, the TGI in [1], in test [2], in test [3], in test [4], in test [5] and in [6] was > 100 µM each time. Also, the TGI in [7], in [8], in test [9] and in test [10] was > 100 µM throughout.

On to `O=C(/C(=C/c1ccc([N+](=O)[O-])cc1)SCc1ccccc1)c1ccc(Cl)cc1`, for which the GI50 was 2.54 µM in [1]; 14.4 µM in test [2]; 3.24 µM in test [3]; 6.36 µM in test [5]; 2.14 µM in test [6]; 1.97 µM in test [7]. In addition, the GI50 in [8] is 2.66 µM; in test [9], 16 µM; in test [10], 2.28 µM. Also, the TGI worked out at 5.75 µM in test [1]; 36.4 µM in test [2]; 13.3 µM in test [3]; 19.4 µM in test [5]; 5.11 µM in [6]; 4.16 µM in test [7]. Moreover, the TGI came out at 8.58 µM in [8], 35.7 µM in test [9] and 9.46 µM in [10].

As for `CCN1C(=O)N(c2ccccc2)C2NC(=S)N(/N=C/C=C/c3ccccc3OC)C21` (centres undefined), the GI50 is 0.111 µM in test [1]; 0.263 µM in [3]; 0.0704 µM in test [4]; 3.44 µM in [5]; 0.21 µM in test [6]; 0.134 µM in test [7]. Also, the values for the GI50 in test [8], in [9] and in test [10] were 0.139 µM, 0.0383 µM and 2.15 µM, respectively. Besides, the TGI in [1] was > 100 µM; in [3], > 67 µM; in test [4], > 60.9 µM; in test [5] it was > 88.5 µM; in test [6], 0.487 µM; in [7], > 60.8 µM. Moreover, the figures for the TGI in test [8], in [9] and in test [10] were > 42.2 µM, > 41.4 µM and > 85 µM, respectively.

As to `COc1nc(NC2OC(COC(C)=O)C(OC(C)=O)C(OC(C)=O)C2OC(C)=O)c2c(OC(C)=O)cc(=O)oc2n1` (centres undefined), the TGI in [1], in test [2], in test [3], in test [4], in [5] and in [6] was > 100 µM throughout. For the same molecule, the TGI in test [7] is 29.6 µM; in test [8], > 100 µM; in test [9], > 100 µM; in test [10], > 100 µM.

On to `CCc1c(OC(C)=O)c2c(NC3OCC(OC(C)=O)C(OC(C)=O)C3OC(C)=O)nc(SC)nc2oc1=O` (centres undefined), for which the TGI in test [1], in test [2], in test [3], in test [4], in test [5] and in test [6] was > 100 µM throughout. Also, the TGI in test [7], in test [8], in test [9] and in [10] was > 100 µM each time.

`O=C(Nc1ccccc1-c1nn(C(=S)Nc2ccccc2)c(=S)n(C(=S)Nc2ccccc2)c1=O)C(F)(F)F`: the TGI is > 78.9 µM in [1]; > 100 µM in test [2]; > 31.6 µM in test [3]; > 100 µM in test [4]; 31.4 µM in test [5]; 44.4 µM in test [6]. Also, the TGI in test [7] was > 95.6 µM; in [8] it was > 100 µM; in test [9] it was > 88.1 µM; in test [10], 57.9 µM.

Consider `O=c1ccc2ccccc2cc1[O-].O=c1ccc2ccccc2cc1[O-].[O]=[U+2]=[O]`, for which the GI50 is 2.51 µM in test [1]; 30.2 µM in test [2]; 14.7 µM in [3]; 9.44 µM in test [4]; 6.19 µM in test [5]; 25.3 µM in test [6]. Besides, the GI50 is 14.2 µM in test [7], 23.5 µM in test [8], 14 µM in [9] and 28.1 µM in test [10]. The TGI in test [1] was determined as 6.97 µM; in [2], 71.2 µM; in [3], 55.1 µM; in test [4] it was 51.9 µM; in test [5] it was 44.3 µM; in [6], 71.7 µM. The TGI was 33.1 µM in test [7], 64.1 µM in test [8], 32.8 µM in test [9] and 72.1 µM in test [10].

As for `O=C1CCC2(c3ccc(Cl)cc3)Nc3ccncc3N12` (centres undefined), the TGI in test [1], in test [2], in test [3], in test [5], in test [7] and in test [8] was > 10 µM throughout. Moreover, the TGI in test [9] and in [10] was > 10 µM in each case.

Regarding `CN(C)CCn1c2c3ccccc3ccc2c2oc(=O)c3ccccc3c21`, the TGI in test [1] is 16.6 µM; in test [2], 7.35 µM; in test [3], 28.1 µM; in [4], 25.9 µM; in [5], 16.4 µM; in [6], > 100 µM. For the same molecule, the TGI in test [7] was found to be 18.4 µM; in test [9], 9.94 µM; in test [10], 17.6 µM.

Consider `COc1ccc(C2[C@@H](c3ccccc3)C(=O)N2c2cc(OC)c(OC)c(OC)c2)cc1F` (some centres undefined), for which the GI50 in test [1] was 0.026 µM; in [2] it was 0.0348 µM; in [3] it was 0.0871 µM; in test [4], 0.0332 µM; in test [7], 0.044 µM; in test [8], 0.0561 µM. Besides, the GI50 in test [9] was 0.0314 µM; in [10] it was 2.84 µM. Besides, the TGI is 0.0781 µM in [1]; > 100 µM in [2]; > 100 µM in test [3]; > 100 µM in test [4]; > 100 µM in test [7]; > 100 µM in [8]. For the same molecule, the TGI in test [9] and in test [10] was > 100 µM throughout.

For the molecule `COc1ccc2nc(NC(=O)CSc3nnc4n3S(=O)(=O)c3ccccc3N4c3ccccc3)sc2c1`, the GI50 in [1], in test [2], in [3], in test [4], in [5] and in test [6] was > 100 µM in each case. Further, the GI50 is > 100 µM in test [7], 15.9 µM in [9] and 42.7 µM in test [10]. Further, the TGI in test [1], in test [2], in test [3], in [4], in test [5] and in [6] was > 100 µM in each case. Also, the TGI in test [7], in test [9] and in [10] was > 100 µM each time.

Regarding `Cc1ccc(Oc2ccc(C)cc2N)cc1`, the TGI in [1], in test [2], in [3], in [5], in test [6] and in test [8] was > 100 µM throughout. Moreover, the TGI was found to be 73.3 µM in [9] and 95.3 µM in test [10].

Turning to `O=C1C=CC(=O)c2nc3c(cc21)CCC3`, the TGI in [1] is > 100 µM; in test [3], 29.7 µM; in [4] it was 31.4 µM; in test [5], 33.9 µM; in [6] it was 27.7 µM; in test [7] it was 33.1 µM. For the same molecule, the TGI in [8] is 40.3 µM; in test [9], > 100 µM; in [10], 34.1 µM.

Consider `O=S(=O)(N/N=C/c1cccc(/C=N/NS(=O)(=O)c2ccccc2)c1)c1ccccc1`, for which the TGI in test [1], in test [2], in [3], in test [5], in [6] and in [7] was > 100 µM throughout. Moreover, the TGI in [8] was > 100 µM; in [9] it was > 100 µM; in test [10], 97.2 µM.

`CC(=O)NNc1nc(C)c(C(=O)/C=C/c2ccc(NC(C)=O)cc2)s1`: the TGI in test [1], in test [2], in test [4], in [5], in test [6] and in [7] was > 100 µM in each case. For the same molecule, the TGI in [8], in [9] and in test [10] was > 100 µM in each case.

On to `CCC(=C/[C@H](C)C/C=C/C(C)=C/[C@@H](C)C(=O)[C@@H](C)[C@H](O)[C@@H](C)CC)/C=C/[C@H]1OC(=O)C=C[C@@H]1C`, for which the GI50 was < 0.01 µM in test [1]; < 0.035 µM in test [2]; < 0.01 µM in test [3]; < 0.01 µM in [4]; < 0.01 µM in test [6]; < 0.01 µM in test [7]. Moreover, the GI50 in test [8], in [9] and in test [10] was < 0.01 µM each time. Further, the TGI was found to be 1.15 µM in test [1]; 13.4 µM in test [2]; 3.67 µM in test [3]; 0.327 µM in test [4]; 0.345 µM in test [6]; 0.566 µM in test [7]. Besides, the figures for the TGI in test [8], in [9] and in test [10] were 1.27 µM, 0.655 µM and 1.2 µM, respectively.

On to `NC(=O)c1ccccc1NC(=O)C(=O)C(C(=O)c1ccc(Cl)c(Cl)c1)C1OC(=O)c2ccccc21` (centres undefined), for which the TGI in test [1], in [3], in test [4], in test [5], in [6] and in test [7] was > 100 µM in each case. The TGI in test [8] was > 100 µM; in [9] it was 83.2 µM; in test [10], > 100 µM.
